# Like-named read-outs stand apart in the source and are kept apart here.
# Columns and labels:
# [1] = test system: LDH-2 (Ec. mundtii LDH-2); conditions: read-out: LDH-2 D241N / pH 5.5, pH 5.5 (MES-NaOH), 3 mM FBP (activator)
# [2] = test system: LDH-2 (Ec. mundtii LDH-2); conditions: read-out: LDH-2 D241N / pH 5.5; pH 5.5 (MES-NaOH), 1.5 mM NADH, 20 mM pyruvate; allosteric activator
smiles,measurement,setting,value
CC(=O)C(=O)O [pyruvate],Km,[1]; 1.5 mM NADH,2300 ± 400 µM
O=P(O)(O)OC[C@H]1OC(O)(COP(=O)(O)O)[C@@H](O)[C@@H]1O (stereo partly drawn) [FBP],EC50,[2],76 ± 45 nM
NC(=O)C1=CN([C@@H]2O[C@H](COP(=O)(O)OP(=O)(O)OC[C@H]3O[C@@H](n4cnc5c(N)ncnc54)[C@H](O)[C@@H]3O)[C@@H](O)[C@H]2O)C=CC1 [NADH],Km,[1]; 20 mM pyruvate,200 ± 40 µM

# From paper PMC4219987 (FEBS Open Bio, 2014)
